From US20220387432A1 (priority 2019, published 2022)

Tests used:
[1] = tested on: PrP^Sc-induced synaptotoxicity on hippocampal neurons; conditions: cited from earlier work
[2] = tested on: amyloid β-derived diffusible ligand (ADDL) induced synaptotoxicity; conditions: cited from earlier work
[3] = tested on: PrP^Sc-induced synaptotoxicity on hippocampal neurons; test: cells; assay type: cell-based, mice
CKIε = CKIε (Homo sapiens, UniProt P49674); conditions: Verkaar et al. (2011); cited from earlier work
Chain of CKIε (P49674 whole entry, species assumed): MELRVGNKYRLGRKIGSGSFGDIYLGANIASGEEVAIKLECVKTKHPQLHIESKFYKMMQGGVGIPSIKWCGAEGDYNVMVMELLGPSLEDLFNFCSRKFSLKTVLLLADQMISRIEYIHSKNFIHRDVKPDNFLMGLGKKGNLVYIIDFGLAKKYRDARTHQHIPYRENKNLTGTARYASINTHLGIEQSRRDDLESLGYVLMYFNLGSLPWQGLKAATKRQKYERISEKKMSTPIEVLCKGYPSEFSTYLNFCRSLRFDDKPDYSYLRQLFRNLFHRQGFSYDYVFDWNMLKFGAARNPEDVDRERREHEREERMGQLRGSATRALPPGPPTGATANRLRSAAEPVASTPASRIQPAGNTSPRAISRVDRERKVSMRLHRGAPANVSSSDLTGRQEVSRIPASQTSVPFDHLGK

CKIδ = CKIδ (Homo sapiens, UniProt P48730); conditions: Verkaar et al. (2011); cited from earlier work
Chain of CKIδ (P48730 whole entry, species assumed): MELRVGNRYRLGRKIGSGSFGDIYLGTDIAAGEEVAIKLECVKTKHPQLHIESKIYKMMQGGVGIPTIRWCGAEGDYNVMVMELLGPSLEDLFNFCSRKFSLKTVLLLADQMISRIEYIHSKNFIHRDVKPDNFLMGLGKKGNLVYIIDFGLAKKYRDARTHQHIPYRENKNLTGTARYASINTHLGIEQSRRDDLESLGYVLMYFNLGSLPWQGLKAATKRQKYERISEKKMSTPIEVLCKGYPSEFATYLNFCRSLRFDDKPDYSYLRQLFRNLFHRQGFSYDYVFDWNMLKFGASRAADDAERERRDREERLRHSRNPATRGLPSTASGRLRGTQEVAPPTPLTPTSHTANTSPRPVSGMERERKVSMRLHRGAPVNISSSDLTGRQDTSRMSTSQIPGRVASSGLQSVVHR

[4] = tested on: PrP^Sc-induced synaptotoxicity on hippocampal neurons; assay type: cell-based, mice

SMILES	Effect on PrP^Sc-induced retraction of dendritic spines / synaptotoxicity [1]	Effect on Aβ oligomer induced dendritic spine retraction / loss [2]	Effect on spine retraction caused by PrP^Sc [3]	Reversal of dendritic spine retraction accrued during first 24 hrs of PrP^Sc treatment [3]	Inhibition of casein kinase isoform CKIε (CKIε)	Effect against ADDL induced synaptotoxicity [2]	Inhibition of casein kinase isoform CKIδ (CKIδ)	Effect on PrP^Sc effects on mEPSC properties (frequency and amplitude) [4]	Dose dependence of effect on PrP^Sc-induced spine loss [3]	Effect on PrP^Sc effects on dendritic spine number [3]	EC50 ([3]; Mus musculus, Hippocampal neuron, 24 h, read-out: EC50 of dose response curve for the rescuing effect on spine number) [µM]
Cc1cccc(C#Cc2ccccc2)n1 [MPEP]	had no influence	blocked	–	–	–	–	–	–	–	–	–
COc1nccc(-c2c(-c3ccc(F)cc3)ncn2C2CCC(O)CC2)n1 (centres unmarked) [SB239063]	blocked	no significant effect	prevented spine retraction	able to reverse the dendritic spine retraction	reported to inhibit	ineffective	reported to inhibit	–	–	–	–
O=c1ncn2nc(Sc3ccc(F)cc3F)ccc2c1-c1c(Cl)cccc1Cl [neflamapimod]	–	–	–	–	–	showed positive effects	–	blocked	dose dependent	blocked	0.0289
